The experiment addresses T1, His-PKC-theta (Homo sapiens, UniProt Q04759).
T1 construct: His; purchased Invitrogen
The experiment in a line: PKC-theta Assay (384-well time resolved fluorescence, IMAP TR-FRET). In kind it is biochemical. The conditions noted are these: read-out: Act. Level (IC50 in the PKC-theta Assay). On the procedure: PKC-theta Assay. A 384-well time resolved fluorescence assay was used to monitor PKC-theta activity. The PKC-theta assay was run in the following assay buffer: 50 mM HEPES pH 7.6, 10 mM MgCl2, 1 mM DTT, 0.01% Triton X-100, 0.01% BSA and 0.1 mM EDTA. To initiate the reaction, 200 nM of Fam-labeled S6-derived peptide (Molecular Devices) and 10 μM of ATP were mixed with 142 pM of His-PKC-theta (Invitrogen) for a total assay volume of 25 μL in each well. The assay was incubated at room temperature for 2 hours and terminated using a 60 μL/well mixture of Detection Binding Solution: 70% IMAP Progressive Binding Buffer A, 30% IMAP Progressive Binding Buffer B, 1:600 Progressive Binding Reagent, and 1:400 TR-FRET Tb Donor (Molecular Devices). The assay plates were then incubated overnight at room temperature and read on a Perkin-Elmer Envision Reader.

Where two headings read alike, the source gives them in different places.

T1 sequence (Q04759 whole entry): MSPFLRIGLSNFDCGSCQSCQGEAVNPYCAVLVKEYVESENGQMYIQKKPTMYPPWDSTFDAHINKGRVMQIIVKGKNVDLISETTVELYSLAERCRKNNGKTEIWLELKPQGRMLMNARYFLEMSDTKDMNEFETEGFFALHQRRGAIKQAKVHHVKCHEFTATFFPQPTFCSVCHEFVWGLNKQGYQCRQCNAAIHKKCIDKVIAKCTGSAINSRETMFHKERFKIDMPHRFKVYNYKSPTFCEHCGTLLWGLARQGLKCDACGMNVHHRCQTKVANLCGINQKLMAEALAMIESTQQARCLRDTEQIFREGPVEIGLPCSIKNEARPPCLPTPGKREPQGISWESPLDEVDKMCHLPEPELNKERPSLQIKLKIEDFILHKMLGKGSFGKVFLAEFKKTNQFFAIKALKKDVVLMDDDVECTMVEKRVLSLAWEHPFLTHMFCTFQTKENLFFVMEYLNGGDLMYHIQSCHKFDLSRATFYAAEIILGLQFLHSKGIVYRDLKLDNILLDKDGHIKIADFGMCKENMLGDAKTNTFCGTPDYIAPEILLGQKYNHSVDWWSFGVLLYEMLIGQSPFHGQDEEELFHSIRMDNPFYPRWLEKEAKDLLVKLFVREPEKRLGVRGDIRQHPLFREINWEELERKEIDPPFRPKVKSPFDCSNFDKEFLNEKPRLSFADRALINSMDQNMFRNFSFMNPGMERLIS

One may read the IC50 as the concentration that gives 50% inhibition. `CC1(C)C[C@H](Nc2nc(NCc3cncnc3OCCC(F)(F)F)ncc2C(F)(F)F)CC[C@@H]1O` [Cmpd 8]: the IC50 was less than 100 nM.

On to `CC1(C)[C@@H](O)C[C@H]1Nc1nc(NCCc2ccc(C#N)c(C(F)(F)F)c2)ncc1C#N` [Cmpd 141], for which the IC50 (Table 2) is 100 to 800 nM.

With `Cc1nnnn1-c1ccccc1CNc1ncc(C#N)c(NC2CCC(O)C(C)(C)C2)n1` (stereo not drawn) [Cmpd 1], for the setting “Table 2”, the IC50 was less than 100 nM.

Take `CC(C)c1ncncc1CNc1ncc(C#N)c(N[C@@H]2C[C@H](CO)C2(C)C)n1` [Cmpd 54]: the IC50 was less than 100 nM.

For `CC1(C)[C@@H](O)C[C@H]1Nc1nc(NCCc2ccc(-c3ccccc3)cc2)ncc1C#N` [Cmpd 111], the IC50 (Table 2) lay within 100 to 800 nM.

Consider `CC1(C)C[C@H](Nc2nc(NCCc3c[nH]c4cc(Cl)ccc34)ncc2C#N)CC[C@@H]1O` [Cmpd 173], for which the IC50 lay in the range of 100 to 800 nM.

On to `CC(F)(F)COc1ncncc1CNc1ncc(C#N)c(NC23CCC(O)(CC2)CC3)n1` [Cmpd 156], for which the IC50 lay within 800 to 2000 nM.

In the case of `CN1CCN(S(=O)(=O)c2ccc(CCNc3ncc(C#N)c(N[C@@H]4CC[C@H](O)C(C)(C)C4)n3)cc2)CC1` [Cmpd 179], the IC50 (Table 2) was in the range of 100 to 800 nM.

Regarding `Cc1nnnn1-c1ccccc1CNc1ncc(C#N)c(N[C@H]2CC[C@@H](O)C(C)(C)C2)n1` [Cmpd 25], the IC50 (Table 2) was 2000 to 10000 nM.

On to `CCc1ncncc1CNc1ncc(C#N)c(N[C@@H]2C[C@@H](O)C2(C)C)n1` [Cmpd 128], for which the IC50 was 100 to 800 nM.

For `CC1(C)C[C@H](Nc2nc(NCCc3ccccc3OC(F)(F)F)ncc2C#N)CC[C@@H]1O` [Cmpd 55], for the setting “Table 2”, the IC50 lay in the range of 100 to 800 nM.

Regarding `CC1(C)C[C@H](Nc2nc(NCCc3cc(Cl)ccc3C(F)(F)F)ncc2C#N)CC[C@@H]1O` [Cmpd 183], the IC50 (Table 2) lay in the range of 100 to 800 nM.

On to `COc1cccc2c(CCNc3ncc(C#N)c(NC4CCC(O)CC4)n3)c[nH]c12` (stereo not drawn) [Cmpd 166], for which the IC50 lay in the range of 800 to 2000 nM.

Turning to `N#Cc1cnc(NCCc2cccc(F)c2)nc1N[C@H]1CC[C@@H](O)CC1` [Cmpd 198], under “Table 2”, the IC50 lay within 100 to 800 nM.

As to `CC1(C)[C@@H](Nc2nc(NCc3c[n+]([O-])ccc3C(F)(F)F)ncc2C(F)(F)F)C[C@@H]1O` [Cmpd 139], the IC50 was 100 to 800 nM.

Take `CC(F)(F)COc1ncncc1CNc1ncc(C(F)(F)F)c(N[C@@H]2C[C@H](O)C2(C)C)n1` [Cmpd 13]: the IC50 is less than 100 nM.

With `N#Cc1cnc(NCCc2ccc(-n3ccnc3)c(F)c2)nc1N[C@H]1CC[C@@H](C(N)=O)CC1` [Cmpd 195], the IC50 (Table 2) was less than 100 nM.

Take `N#Cc1cnc(NCc2cnccc2C(F)(F)F)nc1NC1CC(O)C1` (stereo not drawn) [Cmpd 90]: the IC50 is less than 100 nM.

Regarding `CC(F)(F)COc1ncncc1CNc1ncc(C#N)c(N[C@H]2CC[C@@](C)(C(N)=O)CC2)n1` [Cmpd 160], the IC50 is less than 100 nM.

Consider `N#Cc1cnc(NCc2ccccc2N2CCOCC2)nc1N[C@H]1CC[C@@H](O)CC1` [Cmpd 13], for which the IC50 (Table 2) fell in the range of 800 to 2000 nM.

Regarding `CC1(C)C[C@H](Nc2nc(NCCc3ccc(S(=O)(=O)N4CCC4)cc3)ncc2C#N)CC[C@@H]1O` [Cmpd 176], the IC50 (Table 2) was in the range of 100 to 800 nM.

As to `CC1(C)C[C@H](Nc2nc(NCCc3cccc(Cl)c3)ncc2C#N)CC[C@@H]1O` [Cmpd 32], under “Table 2”, the IC50 is less than 100 nM.

Turning to `CC(C)(CO)Nc1nc(NCc2cnccc2C(F)(F)F)ncc1C#N` [Cmpd 15], the IC50 (Table 2) is 100 to 800 nM.

As for `CC1(C)C[C@H](Nc2nc(NCCc3ccc(Cl)cc3)ncc2C#N)CC[C@@H]1O` [Cmpd 33], the IC50 (Table 2) lay within 100 to 800 nM.

Regarding `CC(C)(O)[C@H]1CC[C@H](Nc2nc(NCc3cnccc3C(F)(F)F)ncc2C#N)CC1` [Cmpd 101], the IC50 fell in the range of 100 to 800 nM.

With `N#Cc1cnc(NCc2cncnc2-c2ccccc2)nc1N[C@H]1CC[C@@H](O)CC1` [Cmpd 52], the IC50 is less than 100 nM.

Consider `CC1(C)C[C@H](Nc2nc(NCc3cncnc3C(F)(F)F)ncc2C#N)CC[C@H]1O` [Cmpd 159], for which the IC50 was in the range of 100 to 800 nM.

In the case of `CC1(C)[C@@H](O)C[C@H]1Nc1nc(NCCc2ccccc2)ncc1C#N` [Cmpd 149], the IC50 (Table 2) was in the range of 100 to 800 nM.

Regarding `Cc1ccc(Oc2ncncc2CNc2ncc(C#N)c(N[C@H]3CC[C@@H](O)CC3)n2)cc1` [Cmpd 26], the IC50 is less than 100 nM.

As for `N#Cc1cnc(NCCc2ccc(F)c(Cl)c2)nc1N[C@H]1CC[C@@H](C(N)=O)CC1` [Cmpd 90], where the note is “Table 2”, the IC50 was less than 100 nM.

For the compound `CC1(C)[C@@H](CO)C[C@H]1Nc1nc(NCc2c[n+]([O-])ccc2C(F)(F)F)ncc1C(F)(F)F` [Cmpd 48], the IC50 was less than 100 nM.

As for `CC1(C)C[C@H](Nc2nc(NCCc3cccc(F)c3)ncc2C#N)CC[C@@H]1O` [Cmpd 196], where the note is “Table 2”, the IC50 is less than 100 nM.

For the compound `CC1(C)[C@@H](O)C[C@H]1Nc1nc(NCCc2cc(C(F)(F)F)cc(C(F)(F)F)c2)ncc1C#N` [Cmpd 125], the IC50 (Table 2) is 100 to 800 nM.

Consider `COc1ccc(CCNc2ncc(C#N)c(N[C@@H]3C[C@H](O)C3(C)C)n2)cc1` [Cmpd 103], for which the IC50 (Table 2) lay in the range of 100 to 800 nM.

As to `COc1ccccc1CCNc1ncc(C#N)c(N[C@@H]2C[C@H](O)C2(C)C)n1` [Cmpd 85], the IC50 (Table 2) lay in the range of 100 to 800 nM.

With `CC1(C)[C@@H](O)C[C@H]1Nc1nc(NCCc2ccccc2C(F)(F)F)ncc1C#N` [Cmpd 44], the IC50 (Table 2) lay within 100 to 800 nM.

As for `N#Cc1cnc(NCCc2ccc(F)cc2)nc1N[C@H]1CC[C@@H](C(N)=O)CC1` [Cmpd 91], under “Table 2”, the IC50 lay within 100 to 800 nM.

Regarding `CC1(C)C[C@H](Nc2nc(NCC(=O)c3ccc(Cl)cc3)ncc2C#N)CC[C@@H]1O` [Cmpd 81], the IC50 (Table 2) lay within 100 to 800 nM.

As for `C[C@]1(O)CC[C@@H](Nc2nc(NCc3cncnc3-c3ccc(F)cc3)ncc2C#N)CC1` [Cmpd 86], the IC50 was less than 100 nM.

With `N#Cc1cnc(NCc2ccccc2Oc2ccccc2)nc1N[C@H]1CC[C@@H](O)CC1` [Cmpd 118], the IC50 was in the range of 100 to 800 nM.

Regarding `C[C@]1(O)CC[C@@H](Nc2nc(NCc3cncnc3-c3ccccc3)ncc2C#N)CC1` [Cmpd 84], the IC50 was less than 100 nM.

`CC(F)(F)COc1ncncc1CNc1ncc(C#N)c(N[C@H]2C[C@@H](O)C2(C)C)n1` [Cmpd 99]: the 50% inhibitory concentration (IC50) was 100 to 800 nM.

`COc1ccc(C(CNc2ncc(C#N)c(N[C@@H]3CC[C@H](O)C(C)(C)C3)n2)N2CCOCC2)cc1` (stereo partly drawn) [Cmpd 39]: the IC50 (Table 2) lay within 2000 to 10000 nM.

Take `CC1(C)C[C@H](Nc2nc(NCCc3c[nH]c4ccc(Cl)cc34)ncc2C#N)CC[C@@H]1O` [Cmpd 169]: the IC50 lay in the range of 100 to 800 nM.

On to `N#Cc1ccc(CCNc2ncc(C#N)c(N[C@H]3CC[C@@H](O)CC3)n2)cc1` [Cmpd 73], for which the IC50 (Table 2) lay within 800 to 2000 nM.

For `N#Cc1cnc(NCCc2cccc(Cl)c2)nc1N[C@H]1C[C@H](O)C1` [Cmpd 71], the IC50 (Table 2) is 2000 to 10000 nM.

Turning to `CC(C)(CNc1ncc(C#N)c(N[C@@H]2C[C@H](O)C2(C)C)n1)c1cccc(Cl)c1` [Cmpd 40], the IC50 (Table 2) is 2000 to 10000 nM.

With `N#Cc1cnc(NCCc2c[nH]c3ccccc23)nc1N[C@H]1CC[C@@H](O)CC1` [Cmpd 154], the IC50 was 100 to 800 nM.

Take `COCCOc1ccc(CCNc2ncc(C#N)c(N[C@@H]3C[C@H](O)C3(C)C)n2)cc1` [Cmpd 109]: the concentration for half-maximal inhibition (IC50) (Table 2) was 100 to 800 nM.

For the compound `N#Cc1cnc(NCc2ccccc2-n2cccn2)nc1N[C@H]1CC[C@@H](O)CC1` [Cmpd 21], the IC50 (Table 2) was 2000 to 10000 nM.

As for `CC1(C)[C@H](O)C[C@H]1Nc1nc(NCc2cnccc2C(F)(F)F)ncc1C(F)(F)F` [Cmpd 33], the IC50 is less than 100 nM.

Consider `COc1cccc(CCNc2ncc(C#N)c(N[C@@H]3CC[C@H](O)C(C)(C)C3)n2)c1OC` [Cmpd 96], for which, where the note is “Table 2”, the IC50 lay within 100 to 800 nM.

As for `CC1(C)[C@H](O)C[C@@H]1Nc1nc(NCc2cnccc2C(F)(F)F)ncc1C(F)(F)F` [Cmpd 120], the IC50 was 100 to 800 nM.

Turning to `CC(O)(CNc1ncc(C#N)c(N[C@@H]2CC[C@H](O)C(C)(C)C2)n1)c1ccccc1` (stereo partly drawn) [Cmpd 56], where the note is “Table 2”, the IC50 was in the range of 800 to 2000 nM.

On to `N#Cc1cnc(NCc2cnccc2C(F)(F)F)nc1N[C@H]1C[C@H](O)C1` [Cmpd 108], for which the IC50 was in the range of 100 to 800 nM.

With `CC1(C)[C@@H](CO)C[C@H]1Nc1nc(NCc2cnccc2C(F)(F)F)ncc1C(F)(F)F` [Cmpd 32], the IC50 was less than 100 nM.

Consider `CC1(C)[C@H](O)C[C@@H]1Nc1nc(NCc2cncnc2OCCC(F)(F)F)ncc1C(F)(F)F` [Cmpd 83], for which the IC50 was less than 100 nM.

As for `CCc1ncncc1CNc1ncc(C#N)c(N[C@@H]2C[C@H](O)C2(C)C)n1` [Cmpd 67], the IC50 is less than 100 nM.

With `CC1(C)[C@@H](O)C[C@H]1Nc1nc(NCCc2ccc(CN3CCCC3=O)cc2)ncc1C#N` [Cmpd 123], for the setting “Table 2”, the IC50 fell in the range of 800 to 2000 nM.

Take `CC(C)(F)c1ncncc1CNc1ncc(C#N)c(N[C@H]2C[C@@H](CO)C2(C)C)n1` [Cmpd 109]: the IC50 was 100 to 800 nM.

With `COC1CC(Nc2nc(NCc3cnccc3C(F)(F)F)ncc2C(F)(F)F)C1(C)C` (stereo not drawn) [Cmpd 102], the IC50 was 100 to 800 nM.

For `CC1(C)C[C@H](Nc2nc(NCCc3cc(F)cc(Cl)c3)ncc2C#N)CC[C@@H]1O` [Cmpd 184], the IC50 (Table 2) was less than 100 nM.

Turning to `COc1cccc(CCNc2ncc(C#N)c(N[C@@H]3CC[C@H](O)C(C)(C)C3)n2)c1` [Cmpd 31], under “Table 2”, the IC50 is less than 100 nM.

As for `N#Cc1cnc(NCc2c(F)cccc2Cl)nc1N[C@H]1CC[C@@H](O)CC1` [Cmpd 16], the IC50 (Table 2) lay within 100 to 800 nM.

`Cc1cccc(Oc2ncncc2CNc2ncc(C#N)c(N[C@H]3CC[C@@H](O)CC3)n2)c1` [Cmpd 45]: the IC50 is less than 100 nM.

Turning to `CC1(C)C[C@H](Nc2nc(NCc3cncnc3C(F)(F)F)ncc2C#N)CC[C@@H]1O` [Cmpd 43], the IC50 is less than 100 nM.

For the compound `CC1(C)[C@@H](O)C[C@H]1Nc1nc(NCc2cncnc2-c2ccc(F)cc2)ncc1C#N` [Cmpd 79], the IC50 was less than 100 nM.

For the compound `CCOc1ncncc1CNc1ncc(C(F)(F)F)c(N[C@@H]2CC[C@H](O)C(C)(C)C2)n1` [Cmpd 25], the IC50 is less than 100 nM.

As to `CC(C)Oc1ccccc1CNc1ncc(C#N)c(N[C@H]2CC[C@@H](O)CC2)n1` [Cmpd 5], the IC50 (Table 2) fell in the range of 100 to 800 nM.

For the origin of these results see patent US9783505B2, “Substituted diaminopyrimidyl compounds, compositions thereof, and methods of treatment therewith” (Signal Pharmaceuticals, LLC, priority 2013, dated 2017).
